From patent US6583306B1, “Methods of asymmetrically synthesizing enantiomers of Casodex, its derivatives and intermediates thereof” (priority 1999, dated 2003)
Read-outs that look alike come from different tables or passages of the source.

Test system: testosterone response
Experiment: Biological data comparing pure enantiomers of Casodex (bicalutamide) with the racemic mixture: reduction of the testosterone response
Type: cell-based
Text: The data for dihydrotestosterone are EC50 values. The rest of the data are IC50 values, since the assay is measuring the amount of compound it takes to reduce the testosterone response 50%.

[1] = Experiment 1, amount of compound it takes to reduce the testosterone response 50%, read-out: IC50, Experiment 1
[2] = Experiment 2, amount of compound it takes to reduce the testosterone response 50%, read-out: IC50, Experiment 2

Structure (SMILES): CC(O)(CS(=O)(=O)c1ccc(F)cc1)C(=O)Nc1ccc(C#N)c(C(F)(F)F)c1 (racemic) [Racemate, N-[4-cyano-3-(trifluoromethyl)phenyl]-3-[(4-fluorophenyl)sulfonyl]-2-hydroxy-2-methyl-propanamide,(+−)]
- IC50 (read-out: IC50, Experiment 1): 900 nM
- IC50 (read-out: IC50, Experiment 2): 1000 nM

Structure (SMILES): CC(O)(CS(=O)(=O)c1ccc(F)cc1)C(=O)Nc1ccc(C#N)c(C(F)(F)F)c1 [(R), N-(4cyano-3-trifluoromethyl-phenyl)-3-(4-fluoro-phenylsulfonyl)2-hydroxy-2-methyl-propionamide]
- IC50 [1]: 374 nM
- IC50 [2]: 359 nM

Structure (SMILES): C[C@@](O)(CS(=O)(=O)c1ccc(F)cc1)C(=O)Nc1ccc(C#N)c(C(F)(F)F)c1 [(S)]
- IC50 [1]: 7700 nM
- IC50 [2]: 11000 nM

Structure (SMILES): C[C@]12CCC(=O)C[C@@H]1CC[C@@H]1[C@@H]2CC[C@]2(C)[C@@H](O)CC[C@@H]12 [DHT (Standard), dihydrotestosterone]
- EC50 (read-out: EC50, Experiment 1): 0.18 nM
- EC50 (read-out: EC50, Experiment 2): 0.18 nM

Structure (SMILES): CC(C)(O)C(=O)Nc1ccc([N+](=O)[O-])c(C(F)(F)F)c1 [OH Flut. (Standard)]
- IC50 [1]: 19 nM
- IC50 [2]: 41 nM
